Biological target: T1, recombinant, human protein tyrosine phosphatase (PTP) 1B (hPTP1B) (Homo sapiens, UniProt P18031)
T1 construct: made in house
T1 sequence (P18031 1-435): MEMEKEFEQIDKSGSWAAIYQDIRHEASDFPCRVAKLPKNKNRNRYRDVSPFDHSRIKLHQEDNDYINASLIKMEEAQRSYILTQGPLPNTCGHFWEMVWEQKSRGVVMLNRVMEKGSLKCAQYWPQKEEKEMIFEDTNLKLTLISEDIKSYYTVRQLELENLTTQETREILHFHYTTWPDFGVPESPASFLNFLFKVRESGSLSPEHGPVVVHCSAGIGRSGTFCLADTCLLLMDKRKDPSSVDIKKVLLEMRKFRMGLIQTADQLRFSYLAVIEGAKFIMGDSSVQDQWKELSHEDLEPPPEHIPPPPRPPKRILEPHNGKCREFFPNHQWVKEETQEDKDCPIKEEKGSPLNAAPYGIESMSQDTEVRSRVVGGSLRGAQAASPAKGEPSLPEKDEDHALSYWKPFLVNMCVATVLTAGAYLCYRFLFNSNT
Experiment: Inhibition of tri-phosphorylated insulin receptor dodecaphosphopeptide dephosphorylation by hPTP1B
Format: biochemical
Conditions: 50 μM IR triphosphopeptide substrate, 5 min preincubation and 5 min reaction at 37° C., malachite green-ammonium molybdate phosphate detection

Molecule | IC50 [nM]
Cc1cccc(-c2cc(C(=O)NCCCCCCCc3ccccc3)cc(-c3cccc(C)c3)c2OCCCC(=O)O)c1 [Example 146, 4-[3,3″-Dimethyl-5′-(7-phenyl-heptylcarbamoyl)-[1,1′:3′,1″]terphenyl-2′-yloxy]-butyric acid] | 258
COCOc1c(-c2cccc(C=O)c2)cc(C(=O)NCCCCCCCc2ccccc2)cc1-c1cccc(C=O)c1 [Example 149, 3,3″-Diformyl-2′-methoxymethoxy-[1,1′:3′,1″]terphenyl-5′-carboxylic acid (7-phenyl-heptyl)-amide] | 405
O=C(NCCCCCCCCc1ccccc1)c1cc(Br)c(O)c(-c2cccc(C(=O)OCCCCCl)c2)c1 [Example 152, 3′-Bromo-2′-hydroxy-5′-(8-phenyl-octylcarbamoyl)-biphenyl-3-carboxylic acid 4-chloro-butyl ester] | 396
CCCCCCCCCCCCNC(=O)c1cc(-c2ccc(OC)cc2)c(OCC(=O)O)c(-c2cccc(C(F)(F)F)c2)c1 [Example 154, (5′-Dodecylcarbamoyl-4″-methoxy-3-trifluoromethyl-[1,1′;3′1″]terphenyl-2′-yloxy)acetic acid] | 129
CCCCCCCCCCCCNC(=O)c1cc(-c2ccc(OC)cc2)c(OCC(=O)O)c(-c2ccccc2F)c1 [Example 155, (5′-Dodecylcarbamoyl-2″-fluoro-4-methoxy-[1,1′;3′,1″]terphenyl-2′-′yloxy)acetic acid] | 139
CCCCCCCOc1ccc(CNC(=O)c2cc(-c3cccc(Cl)c3)c(OCC(=O)O)c(-c3cccc(Cl)c3)c2)cc1 [Example 162, [3,3″-Dichloro-5′-(4-heptyloxy-benzylcarbamoyl)-[1,1′;3′,1″]terphenyl-2′-yloxy]acetic acid] | 136
O=C(O)CCCCOc1c(-c2cccc(Cl)c2)cc(C(=O)NCCCCCCCCn2ccc3ccccc32)cc1-c1cccc(Cl)c1 [Example 164, 5-[3,3″-Dichloro-5′-(8-indol-1-yl-octylcarbamoyl)-[1,1′;3′,1″]terphenyl-2′-yloxy]-pentanoic acid] | 191
O=C(O)COc1c(-c2cccc(Cl)c2)cc(C(=O)NCCCCCCO)cc1-c1cccc(Cl)c1 [Example 167, [3,3″-Dichloro-5′-(6-hydroxy-hexylcarbamoyl)-[1,1′:3′,1″]terphenyl-2′-yloxy]acetic acid] | 231
CCCCCCCCCCOc1cc(-c2ccccc2)c(OCC(=O)O)c(-c2ccccc2)c1 [Example 172, (5′-Decyloxy-[1,1′;3′,1″]terphenyl-2′-yloxy)acetic acid] | 154
O=C(NCCCCCCCCc1ccccc1)c1cc(Br)c(O)c(-c2cccc(C(F)(F)F)c2)c1 [Example 194, 5-Bromo-6-hydroxy-3′-trifluoromethyl-biphenyl-3-carboxylic acid (8-phenyl-octyl)-amide] | 640
O=C(O)CCCCCCOc1c(-c2cccc(C(F)(F)F)c2)cc(C(=O)NCCCCCCCCc2ccccc2)cc1-c1cccc(C(F)(F)F)c1 [Example 196, 7-[5′-(8-Phenyl-octylcarbamoyl)-3,3″-bistrifluoromethyl-[1,1′;3′,1″]terphenyl-2′-yloxy]-heptanoic acid] | 150
O=C(NCCCCCCCCc1ccccc1)c1cc(-c2cccc(C(F)(F)F)c2)c(OCc2nnn[nH]2)c(-c2cccc(C(F)(F)F)c2)c1 [Example 206, 2′-(1H-Tetrazol-5-ylmethoxy)-3,3″-bis-trifluoromethyl-[1,1′:3′1″]terphenyl-5′-carboxylic acid (8-phenyl-octyl)-amide] | 286
O=C(NCCCCCCCCc1ccccc1)c1ccc(OS(=O)(=O)c2ccc(C(=O)O)c(O)c2)c(Br)c1 [Example 210, 4-[2-Bromo-4-(8-phenyl-octylcarbamoyl)-phenoxysulfonyl]-2-hydroxy-benzoic acid] | 530
CN(CCCCCCCCc1ccccc1)C(=O)c1cc(Br)c(OCC(=O)O)c(-c2cccc(C(F)(F)F)c2)c1 [Example 212, {3-Bromo-5-[methyl-(8-phenyl-octyl)-carbamoyl]-3′-trifluoromethyl-biphenyl-2-yloxy]-acetic acid] | 272
CN(CCCCCCCCc1ccccc1)C(=O)c1cc(-c2ccc(F)c(Cl)c2)c(OCC(=O)O)c(-c2ccc(F)c(Cl)c2)c1 [Example 213, {3,3″-Dichloro-4,4″difluoro-5′-[methyl-(8-phenyl-octyl)-carbamoyl]-[1,1′;3′1″]terphenyl-2′yloxy}-acetic acid] | 198
Ammonium molybdate tetrahydrate [reference compound] | 8700
[[4,4′-Dimethoxy-5′-[4-[[(7-phenylheptyl)amino]carbonyl]phenyl][1,1′:3′,1-terphenyl]-2′-yl]oxy]acetic acid [Example 131] | 124

Next, values leading:

IC50 [nM] | Molecule
71 | Cc1cc(C)cc(-c2cc(C(=O)NCCCCCCCCc3ccccc3)cc(-c3cc(C)cc(C)c3)c2OCC(=O)O)c1 [Example 141, [3,5,3″,5″-Tetramethyl-5′-(8-phenyl-octylcarbamoyl)-[1,1′:3′,1″]terphenyl-2′-yloxy]acetic acid]
98 | CCCCCCCCCCCCNC(=O)c1cc(-c2cccc(Cl)c2)c(OCC(=O)O)c(-c2cccc(C(F)(F)F)c2)c1 [Example 153, (3″-Chloro-5′-dodecylcarbamoyl-3-trifluoromethyl-[1,1′;3′,1″]terphenyl-2′-yloxy)acetic acid]
77 | O=C(O)c1ccc(OCCOc2c(-c3cccc(Cl)c3)cc(C(=O)NCCCCCCCCn3ccc4ccccc43)cc2-c2cccc(Cl)c2)cc1 [Example 165, 4-{2-[3,3″-Dichloro-5′-(8-indol-1-yl-octylcarbamoyl)-[1,1′:3′,1″]terphenyl-2′-yloxy]-ethoxy}benzoic acid]
77 | O=C(O)COCCOc1c(-c2cccc(Cl)c2)cc(C(=O)NCCCCCCCCn2ccc3ccccc32)cc1-c1cccc(Cl)c1 [Example 168, {2-[3,3″-Dichloro-5′-(8-indol-1-yl-octylcarbamoyl)-[1,1′:3′,1″]terphenyl-2′-yloxy]-ethoxy}acetic acid]
18 | CCCCCCCCCCCCCc1cc(-c2ccccc2)c(OCC(=O)O)c(-c2ccccc2)c1 [Example 171, (5′-Tridecyl-[1,1′;3′,1″]terphenyl-2′-yloxy)acetic acid]
121 | CCCCCCCCCCCCNC(=O)c1cc(Br)c(OCC(=O)O)c(-c2cccc(C(F)(F)F)c2)c1 [Example 176, (3-Bromo-5-dodecylcarbamoyl-3′-trifluoromethyl-biphenyl-2-yloxy)-acetic acid]
104 | O=C(O)COc1c(-c2cccc(C(F)(F)F)c2)cc(C(=O)NCCCCCCCCc2ccccc2)cc1-c1cccc(C(F)(F)F)c1 [Example 177]
25 | CCCCCCCCCCCCNC(=O)c1cc(Br)c(OS(=O)(=O)c2ccc(C(=O)O)c(O)c2)c(-c2cccc(C(F)(F)F)c2)c1 [Example 179, 4-(3-Bromo-5-dodecylcarbamoyl-3′-trifluoromethyl-biphenyl-2-yloxysulfonyl)-2-hydroxy-benzoic acid]
107 | O=C(O)CCCCOc1c(-c2cccc(C(F)(F)F)c2)cc(C(=O)NCCCCCCCCc2ccccc2)cc1-c1cccc(C(F)(F)F)c1 [Example 192]
73 | O=C(NCCCCCCCCc1ccccc1)c1cc(Br)c(OS(=O)(=O)c2ccc(C(=O)O)c(O)c2)c(-c2cccc(C(F)(F)F)c2)c1 [Example 195, 4-[3-Bromo-5-(8-phenyl-octylcarbamoyl)-3′-trifluoromethyl-biphenyl-2-yloxysulfonyl]-2-hydroxy-benzoic acid]
99 | O=C(NCCCCCCCCc1ccccc1)c1cc(-c2cccc(C(F)(F)F)c2)c(OCCNc2c(O)c(=O)c2=O)c(-c2cccc(C(F)(F)F)c2)c1 [Example 197]
102 | COc1cc(COc2c(-c3cccc(C(F)(F)F)c3)cc(C(=O)NCCCCCCCCc3ccccc3)cc2-c2cccc(C(F)(F)F)c2)ccc1C(=O)O [Example 199, 2-Methoxy-4-[5′-(8-phenyl-octylcarbamoyl)-3,3″-bis-trifluoromethyl-[1,1′:3′1″]terphenyl-2′yloxymethyl]-benzoic acid]
50 | O=C(NCCCCCCCCc1ccccc1)c1cc(-c2cccc(C(F)(F)F)c2)c(OS(=O)(=O)c2ccc(C(=O)O)c(O)c2)c(-c2cccc(C(F)(F)F)c2)c1 [Example 203, 2-Hydroxy-4-[5′-(8-phenyl-octylcarbamoyl)-3,3″-bis-trifluoromethyl-[1,1′:3′1″]terphenyl-2′-yloxysulfonyl]-benzoic acid]
73 | COc1cc(COc2c(Br)cc(C(=O)NCCCCCCCCc3ccccc3)cc2-c2cccc(C(F)(F)F)c2)ccc1C(=O)O [Example 204, 4-[3-Bromo-5-(8-phenyl-octylcarbamoyl)-3′-trifluoromethyl-biphenyl-2-yloxymethyl]-2-methoxy-benzoic acid]
83 | O=C(NCCCCCCCCc1ccccc1)c1cc(Br)c(OCc2ccc(C(=O)O)c(O)c2)c(-c2cccc(C(F)(F)F)c2)c1 [Example 208, 4-[3-Bromo-5-(8-phenyl-octylcarbamoyl)-3′-trifluoromethyl-biphenyl-2-yloxymethyl]-2-hydroxy-benzoic acid]
60 | O=C(NCCCCCCCCc1ccccc1)c1cc(-c2cccc(C(F)(F)F)c2)c(OCCOc2ccc(C(=O)O)c(O)c2)c(-c2cccc(C(F)(F)F)c2)c1 [Example 211, 2-Hydroxy-4-{2-[5′-(8-phenyl-octylcarbamoyl)-3,3″-bis-trifluoromethyl-[1,1′:3′,1″]terphenyl-2′-yloxy]-ethoxy}-benzoic acid]
84 | [[5′-[4-[[(7-Phenylheptyl)amino]carbonyl]phenyl]-3,3′-bis(trifluoromethyl)[1,1′:3′,1′-terphenyl]-2′-yl]oxy]acetic acid [Example 132]

— US7008636B2, “2,3,5-substituted biphenyls useful in the treatment of insulin resistance and hyperglycemia” (Wyeth, priority 1998, dated 2006)
